The values that follow come from patent US9243037B2, “Gramicidin a mutants that function as antibiotics with improved solubility and reduced toxicity” (Trustees of Boston College, priority 2011, dated 2016).

Each structure is given as a SMILES string. Like-named read-outs stand apart in the source and are kept apart here. Marks after values point to notes of the source that are not given here.

Data set [1] deals with Bacillus subtilis (ATCC 663).
Data set [2] relates to Staphylococcus aureus (ATCC 6538). The settings on record: for MICs S. Aureus: Table 2, standard micro-dilution. On the technique in general: Dilution methods test growth across graded concentrations, often in twofold steps.
Data set [3] relates to human red blood cells (hRBCs). The data set is described as follows: Haemoglobin release from human red blood cells. Format: cell-based. The protocol:
Fresh human red blood cells (hRBCs) were centrifuged at 3500 rpm and washed with PBS buffer until the supernatant was clear. The hRBCs were then resuspended and diluted to a final concentration of 1% (v/v) in PBS and used immediately. 15 μL of serial dilution (2-fold) of peptides in DMSO or DMSO alone as a negative control were added to 1.5 mL of hRBCs in PBS. The resulting mixture was gently shaken to mix well and incubated at 37° C. for 1 hr, followed by centrifugation at 3500 rpm for 10 min using tabletop centrifuge. Aliquots (50 μL) of the supernatant (in triplicates) were transferred into a sterile 96-well plate containing 50 μL of H2O in each well. Release of hemoglobin was monitored at 415 nm using a microtiter plate reader. Percentage hemolysis was calculated using percentage hemolysis=100·(A415, peptide-A415,DMSO)/(A415, complete hemolysis-A415, DMSO), where complete hemolysis is achieved by mixing hRBCs with 1% TritonX-100.

A short description of the next data set: physchem. Format: physicochemical. The protocol:
Peptide solubility in 10 mM HEPES buffer with 1% DMSO was measured by monitoring tryptophan absorbance. A concentrated (6.0-8.0 mM) peptide stock solution in DMSO was diluted 100 times (5 μL of the stock into 500 jtl of 10 mM HEPES buffer, pH 7.0). The mixture was sonicated for 30 mins and then subject to centrifugation (14,000 rpm, 10 mins) to remove possible precipitate. The supernatant (400 μL) was transferred to a quartz cuvette and the peptide concentration was determined by tryptophan absorbance at 280 nm (ε=22760 M−1 cm-1). The UV/Vis spectra of the supernatant can be seen in FIG. 1 and FIG. 5.

The next data set is described as follows: FIG. 2. As for the experimental part:
Table printed on a drawing sheet, FIG. 2
Water solubility of gA variants is determined by Trp absorbance at 280 nm and summarized in the inserted table. Buffer used: 10 mM HEPES containing 1% DMSO. The solubility of gA-WT was obtained from reference.
First reader's note: Saturation concentration (water solubility); the gA-WT cell carries its own unit (nM), and the marker [a] is not explained on the sheet.

Another data set relates to bacteria. The data set is described as follows: Antibacterial activity, strain not singled out. The conditions noted are these: in words.
Data set [4] concerns Streptococcus pyogenes (ATCC 19615).
The test system of a further data set is HeLa. The data set is described as follows: MTT toxicity assay. The settings on record: HeLa; in words. Format: cell-based, human. As for the experimental part: (§1) Toxicity of gA-WT and gA-5 was tested against two human cancer cell lines, HeLa and MCF-7 (gifts from Professor Eranthie Weerapana at Boston College) by using the MTT assay as described in the protocol provided by Invitrogen.[5] HeLa cells (in DMEM high glucose media with 10% FBS, 1% Pen/Strep, 37° C., 5% CO2) and MCF-7 cells (in RPMI media with 10% FBS and 1% Pen/Strep, 37° C., 5% CO2) were grown to about 80% confluent before removed from the surface of a 20 cm petri-dish with […] with EDTA (3-5 mins, 37° C., 5% CO2). Cells were pelleted (3,500 rpm, 5 mins at 4° C.), and plated at 15,000 cells per well (100 μL per well), then incubated for 48 hrs before peptide addition.
(§2) Stock solutions of gA in DMSO with varied concentrations were prepared so that for each peptide concentration the total volume of DMSO addition was kept constant at 1% (v/v). For each peptide concentration, samples were set up as four replicates. Control wells were loaded with 1 μL of DMSO. After overnight incubation, cells were washed once with PBS before being incubated for 4 hrs with 110 μL of 12 mM 3-(4,5-Dimethylthiazol-2-yl)-2,5-diphenyltetrazolium bromide (MTT) dissolved in RPMI media. The MTT assay was quenched with 100 μL of 10% SDS in 0.01 M HCl and allowed to incubate overnight before absorbance at 570 nm was recorded. Wells were averaged and standard deviations determined for each peptide concentration. Data were normalized to the DMSO control to give % cell survival (see FIG. 3).
In general terms: Tetrazolium dyes change colour on reduction, which living cells bring about.

Another data set has as its system MCF-7. The data set is described as follows: MTT toxicity assay. The settings on record: MCF-7; in words. Type of data set: cell-based, human. The protocol:
as §1, §2

For data set [5] the following is noted: wild type; from reference [8]; cited from earlier work.
In data set [6] the test system is human red blood cells (hRBCs). The data set is described as follows: K+ leakage from hRBCs (flame atomic emission). Format: cell-based. The settings on record: hRBCs. The protocol: The rest of supernatant (1.2 mL) from each sample prepared as described in the hemoglobin leakage assay was transferred into a new sterile eppendorf tube and subject to the K+ concentration measurement using a flame-atomic emission spectrometer (λem=766.5 nm, Perkin Elmer Atomic absorption Spectrometer 3100, acetylene/air flame). Three readings were taken for each sample and averaged as final results. The fraction of K+ leakage from hRBCs was calculated as percentage K+ leaked=100·(I776.5,peptide−I776.5,DMSO)/(I776.5,complete lysis−I776.5,DMSO).

Where [7] appears, read: Table 2, standard micro-dilution.

Protocol for bacteria: Minimal Inhibitory Concentrations (MICs) were measured against Gram-negative Escherichia coli (BL21) and Gram-positive Bacillus subtilis (ATCC 663), Staphylococcus aureus (ATCC 6538), Streptococcus pyogenes (ATCC 19615) using the broth microdilution method.[2] Specifically, bacteria from a single colony were grown overnight in LB broth at 37° C. with agitation. An aliquot was taken and diluted (1:50 for E. coli, 1:20 for B. subtilis, 1:200 for S. aureus, 1: 10 for S. pyogenes) in fresh broth and cultured for another ˜3 hours until the cells reach mid-logarithmic phase (OD590-0.6). The cells were diluted to a concentration of ˜5×10^5 Colony Forming Units/ml (CFU/ml) and the bacteria suspension (200 μL) was added to each well of a sterile 96-well plate. Serial diluted (2-fold) peptides in DMSO (2 μL) were added in triplicates. The plates were shaken for 30 seconds to mix the peptide solution well with the broth, and then incubated at 37° C. overnight before the absorbance at 590 nm was monitored using a microtiter plate reader (SPECTRAMAX M5, Molecular Devices, Sunnyvale, Calif.). The viability of the bacteria was normalized as % survival=(ODpep,bac−ODbroth only)/(ODDMSO, bac-ODbroth only)×100%.

Take `CC(C)C[C@@H](NC(=O)[C@H](C)NC(=O)CNC(=O)[C@@H](NC=O)C(C)C)C(=O)N[C@@H](C)C(=O)N[C@@H](C(=O)N[C@H](C(=O)N[C@@H](C(=O)N[C@@H](Cc1c[nH]c2ccccc12)C(=O)N[C@H](CCCNC(=N)N)C(=O)N[C@@H](Cc1c[nH]c2ccccc12)C(=O)N[C@H](CCCNC(=N)N)C(=O)N[C@@H](Cc1c[nH]c2ccccc12)C(=O)N[C@H](CCCNC(=N)N)C(=O)N[C@@H](Cc1c[nH]c2ccccc12)C(=O)NCCO)C(C)C)C(C)C)C(C)C` (racemic) [gA-6, formyl-V-G-A-dL-A-dV-V-dV-W-dR-W-dR-W-dR-W-NHCH2CH2OH]: the “MICs B. Subtilius” value in data set [1] (ATCC 663) is 2.5~5 μM. Besides, the “MIC relative to wild-type Gramicidin A” value in data set [1] (B. subtilis) is “equivalent to or ˜2-fold higher”; in data set [2] (S. Aureus), “much higher MIC”; in data set [4] (S. Pyogenes), “equivalent to or ˜2-fold higher”. In addition, in [2], the “MICs S. Aureus” value is >10 ^[e] μM. For the same molecule, the “HC50 (50% haemoglobin leakage relative to 1% TritonX-100)” value in data set [3] was found to be 20 µM. The “water solubility, fold higher than wild-type Gramicidin A” value in the data set “physchem” is on record as around 800 fold. The “SAT. CONC/μM” value in the data set “FIG. 2” stood at 43 µM. The “antibacterial activity / MIC” value with bacteria is reported as “low μM potency”. Moreover, the “MICs S. Pyogenes” value in [4] (ATCC 19615) turned out to be 1.25 µM.

Consider `CC(C)C[C@@H](NC(=O)[C@H](C)NC(=O)CNC(=O)[C@@H](NC=O)C(C)C)C(=O)N[C@@H](C)C(=O)N[C@@H](C(=O)N[C@H](C(=O)N[C@@H](C(=O)N[C@@H](Cc1c[nH]c2ccccc12)C(=O)N[C@H](CC(C)C)C(=O)N[C@@H](Cc1c[nH]c2ccccc12)C(=O)N[C@H](CC(C)C)C(=O)N[C@@H](Cc1c[nH]c2ccccc12)C(=O)N[C@H](CC(C)C)C(=O)N[C@@H](Cc1c[nH]c2ccccc12)C(=O)NCCO)C(C)C)C(C)C)C(C)C` (racemic) [gA-WT, formyl-V-G-A-dL-A-dV-V-dV-W-dL-W-dL-W-dL-W-NHCH2CH2OH, reference compound], for which the “MICs B. Subtilius” value in data set [1] (setting [7]) was found to be 2.5 µM. Besides, in [1] (Table 6), the “Minimum Inhibition Concentration B. Subtilius” value was 2.5 µM. Moreover, the “toxicity, cell survival (MTT)” value in the data set on HeLa and in the data set with MCF-7 was “low μM potency” each time. Besides, the “MICs S. Aureus” value in [2] turned out to be 2.5 µM. For the same molecule, the “Minimum Inhibition Concentration S. Aureus” value in [2] (Table 6) worked out at 2.5 µM. Moreover, the “HC50 (50% haemoglobin leakage relative to 1% TritonX-100)” value in [3] (Table 2, hRBCs) turned out to be 5 µM. Further, the “Toxicity HC50” value in data set [3] (Table 6, hRBCs, preliminary) was determined as 5 µM. This molecule also returned an HC50 in data set [3] (Table 8) of 5. Moreover, in data set [4] (setting [7]), the “MICs S. Pyogenes” value came out at 0.16 µM. In addition, the “Minimum Inhibition Concentration S. Pyogenesis” value in [4] (Table 6) is 0.16 µM. Moreover, the solubility in water in data set [5] is below 0.05 µM. For the same molecule, the “KC50 (50% K+ ion leakage relative to 1% TritonX-100)” value in data set [6] (Table 2) stood at 0.00014 µM. Further, the “Toxicity KC50” value in data set [6] (Table 6, preliminary) was determined as 0.00014 µM. In addition, the KC50 in [6] stood at 140 pM.
